Patent US7235379B2, “Method and medium for the detection/identification of microorgranisms with esterase activity” (Bio Merieux, priority 2000, dated 2007)
Counter-ions that a name gives are not always drawn.

Experiments:
Candida albicans 033 = assay: Ex.3 colony coloration, 5-bromo-4-chloro-3-indolyl nonanoate 250 mg/l, DMSO/Tween 20; type: cell-based; further: key: 0: no activity; 0.1: trace of coloration; 0.5: very pale coloration; 1: distinct coloration of low intensity; 2: clear coloration of medium intensity; 3: intense coloration; 4: very intense coloration
Protocol: The esterase substrate tested is 5-bromo-4-chloro-3-indolyl nonanoate. A 40 g/l stock solution of substrate is prepared in a mixture of 40% dimethyl sulfoxide and 60% Tween 20. A sufficient volume is added to a supercooled MacConkey medium (without neutral red) to give a substrate concentration of 250 mg/l.
(§1) Microorganisms originating from the Applicant's collection were inoculated onto this medium from a 0.5 McFarland suspension by isolation in three quadrants. The dishes were incubated at 37° C. for 48 hours. The colonies formed were examined visually after 24 and 48 hours of incubation. The coloration of these colonies and the intensity of this coloration were noted.
(§2) The intensity of coloration corresponds to an arbitrary scale defined as follows:

[1] = system: Salmonella typhimurium 010; assay: Ex.2 colony coloration, 5-bromo-3-indolyl nonanoate, methanol/bile salts, MacConkey; type: cell-based; on intensity of coloration: key: 0: no activity; 0.1: trace of coloration; 0.5: very pale coloration; 1: distinct coloration of low intensity; 2: clear coloration of medium intensity; 3: intense coloration; 4: very intense coloration
Protocol: The esterase substrate tested is 5-bromo-3-indolyl nonanoate. A 25 g/l stock solution of substrate is prepared in methanol to which 5 g/l of bile salts have been added. A sufficient volume is added to a supercooled MacConkey medium (without neutral red) to give a substrate concentration of 500 mg/l.
as §1, §2

CCCCC(CC)CCC(CC(C)C)OS(=O)(=O)O (centres unmarked) [Tergitol 4, 7-ethyl-2-methyl-4-undecanoate hydrogensulfate or its sodium salt]
3: intensity of coloration (Candida albicans 033; 0.001 ml/l, 48 h) | intensity of coloration (Candida albicans 033; 0.01 ml/l, 48 h) | intensity of coloration (Candida albicans 033; 0.1 ml/l, 48 h) | intensity of coloration (Candida albicans 033; 1 ml/l (1st col), 48 h) | intensity of coloration (Candida albicans 033; 1 ml/l (2nd col), 48 h) | intensity of coloration ([1]; 4 ml/l, 48 h) | intensity of coloration ([1]; 8 ml/l, 24 h) | intensity of coloration ([1]; 8 ml/l, 48 h) | intensity of coloration ([1]; 16 ml/l, 24 h)
2: intensity of coloration ([1]; 2 ml/l, 24 h) | intensity of coloration ([1]; 2 ml/l, 48 h) | intensity of coloration ([1]; 4 ml/l, 24 h)
3.5: intensity of coloration ([1]; 16 ml/l, 48 h)
gray: color ([1]; 2 ml/l, 24 h) | color ([1]; 2 ml/l, 48 h) | color ([1]; 4 ml/l, 24 h) | color ([1]; 4 ml/l, 48 h) | color ([1]; 8 ml/l, 24 h) | color ([1]; 8 ml/l, 48 h) | color ([1]; 16 ml/l, 24 h) | color ([1]; 16 ml/l, 48 h)
0.5: intensity of coloration (Candida albicans 033; 0.001 ml/l, 24 h) | intensity of coloration (Candida albicans 033; 0.01 ml/l, 24 h) | intensity of coloration (Candida albicans 033; 0.1 ml/l, 24 h) | intensity of coloration (Candida albicans 033; 1 ml/l (1st col), 24 h) | intensity of coloration (Candida albicans 033; 1 ml/l (2nd col), 24 h)
